Here are results for 3 compounds from patent publication US9024021B2, “Diarylacetylene hydrazide containing tyrosine kinase inhibitors” (Sun Pharma Advanced Research Company Ltd., priority 2011, dated 2015).

Test [1] addresses T1, Abl (Q252H) (human) (Homo sapiens, UniProt P00519, Q252H).
T1 construct: purchased Millipore Pharma Services (contract assay, UK pharmacology laboratory)
Description: Mutated Abl kinase inhibition (in vitro), Q252H. The settings on record: 100 nM. It counts as biochemical. The protocol: (§1) The kinase assays were performed by Millipore Pharma Services at their UK pharmacology laboratory.
(§2) In a final reaction volume of 25 μL, Abl (human) (5-10 mU) is incubated with 8 mM MOPS pH7.0, 0.2 mM EDTA, 50 μM […], 10 mM Mg(OAc)2 and [γ-^33P-ATP] [specific activity approx. 500 cpm/pmol, concentration as required). The reaction is initiated by the addition of the MgATP mix. After incubation for 40 minutes at room temperature, the reaction is stopped by the addition of 5 μL of a 3% phosphoric acid solution. 10 μL of the reaction is then spotted onto a P30 filtermat and washed three times for 5 minutes in 75 mM phosphoric acid and once in methanol prior to drying and scintillation counting.
(§3) The procedure remains exactly the same as described earlier for Abl kinase, the Abl (human) kinase being replaced by mutated Abl (Q252H) (human), Abl (Y253F) (human), Abl (T315I) (human), Abl (M351T) (human) and Abl (H396P) (human) kinases.
(§4) Within each kinase assay, percent of control values were calculated for each test compound raw data point based on mean minimum (0%) and maximum (100%) controls (n=4 per control) for that kinase (sample−mean minimum/mean maximum−mean minimum×100%). Percent inhibition was calculated from these values (100−mean percent of control).

Test [2] addresses T2, Abl (Y253F) (human) (Homo sapiens, UniProt P00519, Y253F).
T2 construct: purchased Millipore Pharma Services (contract assay, UK pharmacology laboratory)
As to the kind of experiment: Mutated Abl kinase inhibition (in vitro), Y253F. Type of test: biochemical. The settings on record: 100 nM. The protocol:
as §1, §2, §3, §4

For test [3], the target named is T3, Abl (M351T) (human) (Homo sapiens, UniProt P00519, M351T).
T3 construct: purchased Millipore Pharma Services (contract assay, UK pharmacology laboratory)
Description: Mutated Abl kinase inhibition (in vitro), M351T. The settings on record: 100 nM. It counts as biochemical. The protocol: as §1, §2, §3, §4

Test [4] addresses T4, Abl (H396P) (human) (Homo sapiens, UniProt P00519, H396P).
T4 construct: purchased Millipore Pharma Services (contract assay, UK pharmacology laboratory)
Description: Mutated Abl kinase inhibition (in vitro), H396P. It counts as biochemical. The settings on record: 100 nM. The protocol:
as §1, §2, §3, §4

Test [5] deals with T5, Lck (human) (Homo sapiens, UniProt P06239).
T5 construct: purchased Millipore Pharma Services (contract assay, UK pharmacology laboratory)
T5 sequence (P06239 whole entry): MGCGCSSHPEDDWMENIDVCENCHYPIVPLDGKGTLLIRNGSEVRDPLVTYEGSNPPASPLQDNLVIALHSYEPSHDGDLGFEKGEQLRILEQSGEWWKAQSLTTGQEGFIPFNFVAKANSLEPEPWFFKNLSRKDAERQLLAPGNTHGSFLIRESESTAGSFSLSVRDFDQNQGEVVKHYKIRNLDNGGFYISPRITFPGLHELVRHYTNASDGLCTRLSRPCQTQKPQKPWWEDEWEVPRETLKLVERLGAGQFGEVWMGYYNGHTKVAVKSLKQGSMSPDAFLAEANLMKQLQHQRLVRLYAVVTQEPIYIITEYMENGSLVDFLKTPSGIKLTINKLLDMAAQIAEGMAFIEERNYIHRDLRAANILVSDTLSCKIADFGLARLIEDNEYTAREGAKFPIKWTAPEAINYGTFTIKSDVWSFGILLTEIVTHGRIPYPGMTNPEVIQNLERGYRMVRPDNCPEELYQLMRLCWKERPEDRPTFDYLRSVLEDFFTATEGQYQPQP
As to the kind of experiment: Lck kinase inhibition (in vitro). It counts as biochemical. The settings on record: read-out: % Inhibition at 100 nM Lck. The protocol:
as §1
In a final reaction volume of 25 μL, Lck (human) (5-10 mU) is incubated with 50 mM Tris pH 7.5, 0.1 mM EGTA, 0.1 mM Na3VO4, 250 μM […] [Cdc2 peptide), 10 mM Mg(OAc)2 and [γ-^33P-ATP] [specific activity approx. 500 cpm/pmol, concentration as required). The reaction is initiated by the addition of the MgATP mix. After incubation for 40 minutes at room temperature, the reaction is stopped by the addition of 5 μL of a 3% phosphoric acid solution. 10 μL of the reaction is then spotted onto a P30 filtermat and washed three times for 5 minutes in 75 mM phosphoric acid and once in methanol prior to drying and scintillation counting.
as §4

In test [6] the target is T6, Lyn (human) (Homo sapiens, UniProt P07948).
T6 construct: purchased Millipore Pharma Services (contract assay, UK pharmacology laboratory)
T6 sequence (P07948 whole entry): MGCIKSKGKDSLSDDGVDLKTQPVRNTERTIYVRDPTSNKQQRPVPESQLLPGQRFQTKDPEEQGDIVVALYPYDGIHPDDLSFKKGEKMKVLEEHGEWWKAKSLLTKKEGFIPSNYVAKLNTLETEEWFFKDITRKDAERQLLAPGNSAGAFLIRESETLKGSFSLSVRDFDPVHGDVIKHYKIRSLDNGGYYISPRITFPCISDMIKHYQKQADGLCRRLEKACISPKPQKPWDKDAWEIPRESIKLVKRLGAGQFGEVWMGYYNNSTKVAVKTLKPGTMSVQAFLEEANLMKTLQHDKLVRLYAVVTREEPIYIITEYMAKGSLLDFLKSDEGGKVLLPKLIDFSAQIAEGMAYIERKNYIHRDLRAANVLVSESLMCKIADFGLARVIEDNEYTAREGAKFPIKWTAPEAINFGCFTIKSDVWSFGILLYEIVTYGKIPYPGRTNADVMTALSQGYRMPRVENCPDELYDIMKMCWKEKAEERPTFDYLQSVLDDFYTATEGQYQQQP
As to the kind of experiment: Lyn kinase inhibition (in vitro). It counts as biochemical. The settings on record: read-out: % Inhibition at 100 nM Lyn. The protocol:
as §1
In a final reaction volume of 25 μL, Lyn (human) (5-10 mU) is incubated with 50 mM Tris pH 7.5, 0.1 mM EGTA, 0.1 mM Na3VO4, 0.1% β-mercaptoethanol, 0.1 mg/ml poly(Glu, tyr) 4:1, 10 mM Mg(OAc)2 and [γ-^33P-ATP] [specific activity approx. 500 cpm/pmol, concentration as required). The reaction is initiated by the addition of the MgATP mix. After incubation for 40 minutes at room temperature, the reaction is stopped by the addition of 5 μL of a 3% phosphoric acid solution. 10 μL of the reaction is then spotted onto a filtermat A and washed three times for 5 minutes in 75 mM phosphoric acid and once in methanol prior to drying and scintillation counting.
as §4

The test system of test [7] is K562 cells. As to the kind of experiment: In-vitro cell proliferation assay (MTT), K562 cells. It counts as cell-based. The settings on record: Homo sapiens; for inhibition at 0.01 µM: 10 nM; for inhibition at 0.1 µM: 100 nM. The protocol:
In-Vitro Cell Proliferation Assay
K562/U937 cells (2×10^4 per well) were incubated with the test compounds/vehicle in a total volume of 200 μL of media at 37° C. with 5% CO2. […] The cells were incubated overnight at 37° C. with 5% CO2. On Day 5 the optical density was measured at 570 nm with 630 nm as reference wavelength. The optical density in the vehicle treated wells was compared with that of the test compound treated wells.

The target in test [8] is T7, Abl (T315I) (human) (Homo sapiens, UniProt P00519, T315I).
T7 construct: purchased Millipore Pharma Services (contract assay, UK pharmacology laboratory)
Description: Abl-T315I kinase inhibition (in vitro). Type of test: biochemical. The settings on record: for inhibition at 0.1 µM: 100 nM; for inhibition at 1 µM: 1000 nM. The protocol:
as §1
[specific activity approx. 500 cpm/pmol, concentration as required). The reaction is initiated by the addition of the MgATP mix. After incubation for 40 minutes at room temperature, the reaction is stopped by the addition of 5 μL of a 3% phosphoric acid solution. 10 μL of the reaction is then spotted onto a P30 filtermat and washed three times for 5 minutes in 75 mM phosphoric acid and once in methanol prior to drying and scintillation counting.
as §4

With `Cc1ccc(C(=O)NNC(=O)c2c(C)cccc2Cl)cc1C#Cc1cnc2ccccc2c1` [I.2, N′-(2-Chloro-6-methylbenzoyl)-4-methyl-3-[2-(3-quinolyl)ethynyl]benzohydrazide], the inhibition (commonly the change of the read-out against control, counted positive when it falls) at 0.1 µM stood at 100% in test [1]; 101% in test [2]; 100% in test [3]; 99% in test [4]; 84% in test [5]; 97% in test [6].
Consider `Cc1ccc(C(=O)NNC(=O)c2c(C)cccc2I)cc1C#Cc1cnc2ccccc2c1` [I.4, N′-(2-Iodo-6-methylbenzoyl)-4-methyl-3-[2-(3-quinolyl)ethynyl]benzohydrazide], for which, in test [7], the inhibition at 0.01 µM was determined as 102%. In addition, the inhibition at 0.1 µM in test [7] came to 100%; in test [8], 90%; in test [1], 100%; in test [2] it was 98%; in test [3], 99%; in test [4], 100%. In addition, the figures for the inhibition at 0.1 µM in test [5] and in test [6] were 81% and 97%, respectively. Also, in test [8], the inhibition at 1 µM stood at 100%.
For the compound `Cc1ccc(C(=O)NNC(=O)c2c(C)cccc2Cl)cc1C#Cc1cnc2cccnn12` [I.16, N′-(2-Chloro-6-methylbenzoyl)-3-[2-(imidazo[1,2-b]pyridazin-3-yl)ethynyl]-4-methylbenzohydrazide], the inhibition at 0.01 µM in test [7] amounted to 104%. Further, the inhibition at 0.1 µM in test [7] is 102%; in test [8], 70%; in test [1], 98%; in test [2] it was 98%; in test [3] it was 100%; in test [4] it was 99%. For the same compound, the figures for the inhibition at 0.1 µM in test [5] and in test [6] were 65% and 74%, respectively. The inhibition at 1 µM in test [8] came out at 93%.
